molecular target: T-2 reactive monoclonal antibody; type: binding, murine; settings: not given

Row | SMILES | 50% Inhibition (concentration required to inhibit binding of antibody by 50%) | Minimal Inhibition (concentration required for first significant inhibition of binding of antibody) | cross reaction with T-2 monoclonal antibody | reactivity relative to T-2 [%]
1 | CC(=O)OC[C@]12C[C@H](OC(=O)CC(C)(C)O)C(C)=C[C@H]1O[C@@H]1[C@H](O)[C@@H](O)[C@@]2(C)[C@]12CO2 [3'OH HT-2] | 0.100 µg/mL | 0.05 µg/mL |  | 
2 | CC(=O)OC[C@]12C[C@H](OC(=O)CC(C)(C)O)C(C)=C[C@H]1O[C@@H]1[C@H](O)[C@@H](OC(C)=O)[C@@]2(C)[C@]12CO2 [3'OH T-2] | 0.018 µg/mL | 0.005 µg/mL |  | 
3 | CC(=O)OC[C@]12C[C@H](OC(=O)CC(C)C)C(C)=C[C@H]1O[C@@H]1[C@H](OC(C)=O)[C@@H](OC(C)=O)[C@@]2(C)[C@]12CO2 [Acetyl T-2] | 0.094 µg/mL | 0.01 µg/mL | strong cross reaction | 
4 | CC1=C[C@H]2O[C@@H]3[C@H](O)C[C@](C)([C@@]2(CO)[C@H](O)C1=O)[C@]31CO1 [Deoxynivalanol] | > 1000. ug/ml | > 1000. ug/ml |  | 
5 | CC(=O)OC[C@]12C[C@H](OC(=O)CC(C)C)C(C)=C[C@H]1O[C@@H]1[C@H](O)[C@@H](O)[C@@]2(C)[C@]12CO2 [HT-2] | 1.0 µg/mL | 0.5 µg/mL | relatively weak cross-reaction | 2
6 | CC(=O)OC[C@]12C[C@H](O)C(C)=C[C@H]1O[C@@H]1[C@H](O)[C@@H](OC(C)=O)[C@@]2(C)[C@]12CO2 [Neosolaniol] | 1.6 µg/mL | 1.0 µg/mL |  | 
7 | CC1=C[C@H]2O[C@@H]3[C@H](O)[C@@H](O)[C@](C)([C@@]2(CO)C[C@@H]1OC(=O)CC(C)C)[C@]31CO1 [T-2 triol] | 14.9 µg/mL | 5.0 µg/mL |  | 
8 | CC(=O)OC[C@]12C[C@H](OC(=O)CC(C)C)C(C)=C[C@H]1O[C@@H]1[C@H](OC(=O)CCC(=O)O)[C@@H](OC(C)=O)[C@@]2(C)[C@]12CO2 [T-2HS, T-2-hemisuccinate] | 0.072 µg/mL | 0.01 µg/mL |  | 

tested on: polyclonal antibodies produced to aflatoxin B1 and ochratoxin A; settings: cited from earlier work

Row | SMILES | sensitivity
9 | C[C@@H]1Cc2c(Cl)cc(C(=O)N[C@@H](Cc3ccccc3)C(=O)O)c(O)c2C(=O)O1 [ochratoxin A] | 5-10 ppb

— patent publication US4772551A (priority 1985, dated 1988)
